Measurements: ChEMBL document CHEMBL3997838, “Chemical constituents from Sophora tonkinensis and their glucose transporter 4 translocation activities” (Bioorg Med Chem Lett, 2017)
The source made the active and inactive calls. The calls are words filed in the database; no cut-off is given here.

Legend:
[1] = target: T1, Solute carrier family 2, facilitated glucose transporter member 4 (Rattus norvegicus) (UniProt P19357); assay: Enhancement of GLUT4 translocation at plasma membrane of rat L6 cells expressing pIRAP-mOrange at 10 uM after 30 mins by fluorescence assay relative to control
T1 sequence (whole entry): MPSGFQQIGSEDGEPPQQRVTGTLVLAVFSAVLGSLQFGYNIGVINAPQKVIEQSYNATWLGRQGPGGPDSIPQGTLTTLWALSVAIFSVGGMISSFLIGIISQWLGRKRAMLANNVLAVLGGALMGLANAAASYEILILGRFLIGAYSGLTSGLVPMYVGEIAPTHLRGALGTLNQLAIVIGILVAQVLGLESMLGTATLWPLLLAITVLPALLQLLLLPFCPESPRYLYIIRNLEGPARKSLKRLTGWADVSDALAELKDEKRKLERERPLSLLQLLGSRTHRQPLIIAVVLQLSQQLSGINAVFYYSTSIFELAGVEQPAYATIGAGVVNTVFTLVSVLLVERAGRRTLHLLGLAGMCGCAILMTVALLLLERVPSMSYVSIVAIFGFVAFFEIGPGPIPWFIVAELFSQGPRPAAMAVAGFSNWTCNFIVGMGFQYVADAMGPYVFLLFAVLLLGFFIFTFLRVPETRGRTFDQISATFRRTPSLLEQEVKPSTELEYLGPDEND

[2] = target: T1, Solute carrier family 2, facilitated glucose transporter member 4 (Rattus norvegicus); assay: Enhancement of GLUT4 translocation at plasma membrane of rat L6 cells expressing pIRAP-mOrange at […] after 30 mins by laser-scanning confocal microscopic method relative to control
[3] = target: T1, Solute carrier family 2, facilitated glucose transporter member 4 (Rattus norvegicus); assay: Enhancement of GLUT4 translocation at plasma membrane of rat L6 cells expressing pIRAP-mOrange after 30 mins by laser-scanning confocal microscopic method

Row | Compound | fold change (FC) [1] | Activity [1] | further results
1 | CC(C)=CCc1cc([C@@H]2CC(=O)c3ccc(O)c(CC=C(C)C)c3O2)cc2c1OC(C)(C)C=C2 | 1.35 to 2.75 | – | –
2 | CC(C)=CCc1cc([C@@H]2CC(=O)c3ccc(O)c(CC=C(C)C)c3O2)ccc1O | 1.35 to 2.75 | – | –
3 | O=c1c(O)c(-c2ccc(O)c(O)c2)oc2cc(O)cc(O)c12 | – | inactive | –
4 | CC(C)=CCc1cc([C@@H]2CC(=O)c3ccc(O)c(CC=C(C)C)c3O2)cc(CC=C(C)C)c1O | 2.75 | – | fold change (FC) [2]: 2.7; Activity [3]: Dose-dependent effect
5 | CC(C)=CCc1cc2c(c(CC=C(C)C)c1O)O[C@H](c1ccc(O)cc1)CC2=O | 1.35 to 2.75 | – | –
6 | CC(=O)OC[C@H]1O[C@@H](Oc2ccc3c(c2)OC[C@H]2c4cc5c(cc4O[C@@H]32)OCO5)[C@H](O)[C@@H](O)[C@@H]1O | – | inactive | –
7 | CC(C)=CCc1c(O)c(CC=C(C)C)c2oc(-c3ccc(O)cc3)c(O)c(=O)c2c1O | 1.35 to 2.75 | – | –
8 | OC[C@H]1O[C@@H](Oc2ccc3c(c2)OC[C@H]2c4cc5c(cc4O[C@@H]32)OCO5)[C@H](O)[C@@H](O)[C@@H]1O | – | inactive | –
9 | COc1ccc2c(c1)O[C@H]1c3ccc(O)cc3OC[C@@H]21 | – | inactive | –
10 | Oc1ccc2c(c1)OC[C@H]1c3cc4c(cc3O[C@@H]21)OCO4 | – | inactive | –
11 | CC(C)=CCc1c(O)cc(O)c2c1OC[C@H]1c3cc4c(cc3O[C@@H]21)OCO4 | 0.79 | – | –
12 | CC(C)=CCc1c2c(cc3c1O[C@H](c1ccc(O)cc1O)CC3=O)C=CC(C)(C)O2 | 1.35 to 2.75 | – | –
